In patent publication US8128948B1, “Compositions and methods for attracting Anastrepha species” (The United States of America as represented by the …, priority 2007, dated 2012):
One block for each compound: values may come before it.

Tests used:
Assay type in all cases: physicochemical
[1] = Hydrolysis of the dehydration analog; conditions: for distribution of products (rel. % of loss; x±s; n=6): hydrolysis of the dehydration analog, 3 day, pH 5.5, 35° C.
[2] = Batch hydrolysis of suspensolide in aqueous buffers
Description: Buffers at 25° C. were transferred (1 mL) to 9-mm amber crimp-top (Teflon®-sealed) 2-mL GC vials. Suspensolide in anhydrous acetonitrile or methanol (50 μL) was added to afford initial aqueous concentrations of 0.9 mM and the solution was rapidly mixed for 10 s on a vortex Genie® mixer. Aqueous samples (10 μL) were removed with a 25-μL syringe and combined with 2 μL ACN containing 6 μg (+)-sclareolide as an external standard for HPLC.
GC was used to quantify lactones at the conclusion of each experiment. Hexane (1 mL), containing […] of tetradecane as an internal standard, was added to the vials and extractable analytes were removed from the water by rapidly mixing for 2 min on a vortex Genie® mixer. Emulsions were broken with NaCl, after which the hexane layer was transferred to vials for analysis by GC. The remaining solution was concentrated to dryness via Speed Vac® and dissolved in a methanolic solution of diazomethane. Extraction with pentane and subsequently H2O (0.5 mL each) yielded methyl esters amenable to GC within the organic phase. Initial suspensolide concentrations were measured (quadruplicate) via analogous introduction into 1 mL hexane+internal standard.

[3] = 1H-NMR monitored hydrolysis of suspensolide; conditions: 36 μL acetonitrile-d3 + 4 μl D2O; 27° C.
Description: Experiments were performed in a 2.0 mm capillary at 27° C. using a Bruker Avance 500 Console, Magnex 11.75 T/54 mm Magnet, and a 2.5 mm TXI probe (non spun). Spectra (64 scans) were acquired with 2.5 acquisition time and processed with ½ Hz line broadening.
Results and Discussion: Pentane extracts of male salivary glands that were added to water (pH 5.5) and rapidly stirred for 5 min at 25° C. yielded products within both phases that matched those obtained from pentane extraction of crops and oral secretions (FIG. 5). ^1H-Nuclear Magnetic Resonance (NMR) spectroscopy was then employed to directly observe the hydrolysis; the original vinyl and methyl proton signals disappeared over 3 h after a 4 μL addition of D2O to suspensolide in 36 μL acetonitrile-d3 (FIG. 6). In comparison, the loss of suspensolide in batch hydrolysis studies occurred much more rapidly (<2 min) over pH 3-10.

level of 7a-epimer “cis-fused” equivalents among hydrolysis products ([2]; FIG. 4): < 5%
epianastrephin to anastrephin ratio of γ-hydroxy acids formed by hydrolysis ([2]; in 18OH2 at pH 5, FIG. 13): ~2.5
time for loss of suspensolide in batch hydrolysis ([2]; over pH 3-10): < 2 min
time for hydrolysis to product distribution III>II>>IV>>>I ([2]; pH 5-6 and 25° C.): < 2 min
epianastrephin to anastrephin product ratio of hydrolysis ([2]; pathways II and III, FIG. 4): ~2.5
time over which suspensolide was hydrolyzed (1H-NMR) [3]: ~3 h
Compound: C/C1=C/COC(=O)C/C=C(/C)CCC1 [suspensolide, (3E,8E)-suspensolide]

distribution of products (rel. % of loss; x±s; n=6) [1]: 5.8±4.2%
Compound: C=CC1(C)CCCC2(C)OC(=O)CC12 (stereo not drawn) [“cis-fused” anastrephin]

distribution of products (rel. % of loss; x±s; n=6) [1]: 1.1±0.5%
Compound: C=CC1(C)CCCC2(C)OC(=O)CC12 (stereo not drawn) [“cis-fused” epianastrephin]

Further lines, the compound ahead of its results:

Compound: γ-hydroxy acid of anastrephin [anastrephin γ-hydroxy acid]
distribution of products (rel. % of loss; x±s; n=6) [1]: 38.6±5.1%

Compound: C=CC1(C)CCCC(C)=C1CC(=O)O (stereo not shown) [dehydration analog, 2,6-dimethyl-6-vinyl-cyclohexeneacetic acid]
loss on hydrolysis ([1]; 3 day time course, pH 5.5 and 35° C.): ~15%

Compound: γ-hydroxy acid of epianastrephin [epianastrephin γ-hydroxy acid]
distribution of products (rel. % of loss; x±s; n=6) [1]: 3.6±2.3%

Compound: C=C[C@@]1(C)CCC[C@]2(C)OC(=O)C[C@@H]12 [anastrephin, reference compound]
distribution of products (rel. % of loss; x±s; n=6) [1]: 17.3±4.2%

Compound: C=CC1(C)CCCC2(C)OC(=O)CC12 (stereo not shown) [epianastrephin, reference compound]
distribution of products (rel. % of loss; x±s; n=6) [1]: 1.7±1.2%
